{"source": "patent US20240408068A1", "about": "“Helicase Primase Inhibitors For Treating Cancer In A Combination Therapy With Oncolytic Viruses” (priority 2018, published 2024)", "key": {"HSV-1 [1]": {"test_system": "HSV-1", "experiment": "Viral DNA (HSV-1 copies) within treated tumor samples, first oHSV experiment", "format": "in vivo, Balbc/j mice", "conditions": "for Total HSV-1 [copy/g tumor] mean: day 19", "description": "At the end of efficacy monitoring period (on day 19 post-tumor cell inoculation, around ˜3-4 h after the last treatment with test compound), all surviving mice were anesthetized using isoflurane gas anesthesia (4% induction and 2% maintain) prior to blood sampling on heparin-coated tubes by retro-orbital puncture, for plasma collection. In addition, tumors were collected, snap-frozen, and stored at −80° C. until further analysis.\nThe tumors were collected as described above, snap frozen in liquid nitrogen and DNA of ˜25 mg tumor samples was extracted with a QIAamp DNA Mini Kit (Cat. No. 51326) on a QIAcube machine. 10 μL of the 200 μL HSV DNA containing elution volumue was quantified with an Argene HSV R-gene kit (Ref.: 69-004B) and normalized to 1 gram tumor sample (see below)."}, "[2]": {"conditions": "in vivo; cited from earlier work"}, "HSV-1 ACV resistant": {"test_system": "HSV-1 ACV resistant", "experiment": "In vitro activity, HSV-1 ACV resistant", "format": "cell-based", "conditions": "Human alphaherpesvirus 1", "description": "The in vitro activity of the new compounds was measured as described in WO2017/174640 and in WO2019/068817."}, "HSV-1 [3]": {"test_system": "HSV-1", "experiment": "Survival of mice in first oHSV experiment", "format": "in vivo, Balbc/j mice", "conditions": "high dose HSV group subsequently treated with compound", "description": "Pharmacological animal groups (8 animal per group, 64 animals in total) were organized as such: • 1. Control virus-untreated group: test compound vehicle (200 μL, 5% DMSO; 0.5% hydroxypropylmethylcellulose (HPMC) in PBS) oral gavage (20 gauge needle standard suspension applicator), once a day, for 10 days and starting 72 h after virus injection for the other groups. • 2. Control virus vehicle-treated group: 50 μL of virus vehicle, intratumoral injection when tumors reached an average volume of app. 40 mm^3, with test compound vehicle, oral gavage, once a day, for 10 days and starting 72 h after vehicle virus injection. • 3. HSV-1 (quantity 1; 5×10^6 pfu)-treated group: 50 μL of HSV-1 (5×10^6), intratumoral injection when tumors reached an average volume of app. […] HSV-1 (quantity 2; 1×10^8 pfu)-treated group: 100 μL of HSV-1 (1×10^8) intratumoral injection when tumors reached an average volume of app. […] HSV-1 (quantity 1; 5×10^6 pfu)-test compound-treated group: 50 μL of HSV-1 (5×10^6), intratumoral injection when tumors reached an average volume of app. […] HSV-1 (quantity 2; 1×10^8 pfu)-test compound-treated group: 100 μL of HSV-1 (1×10^8), intratumoral injection when tumors reached an average volume of app. […]\nAs previously mentioned, tumor volume and body weight of the animals were measured and recorded three times per week. […]"}}}
{"compound": "Cc1nc(N(C)C(=O)Cc2ccc(-c3cc(F)ccc3F)cc2)sc1[S@@](C)(=N)=O", "note": "[Example 7(−), (−)-(S)-2-(2′,5′-Difluoro-[1,1′-biphenyl]-4-yl)-N-methyl-N-(4-methyl-5-(S-methylsulfonimidoyl)thiazol-2-yl)acetamide]", "values": [{"measurement": "Total HSV-1 [copy/g tumor] mean", "setting": "HSV-1 [1]; Group 5: HSV-1 5 × 10^6 pfu + 10 mg/kg 72 pi", "value": 154493, "unit": "copy/g tumor"}, {"measurement": "Total HSV-1 [copy/g tumor] mean", "setting": "HSV-1 [1]; Group 6: HSV-1 5 × 10^6 pfu + 10 mg/kg 72 pi + αPD1 + αCTLA-4", "value": 51301, "unit": "copy/g tumor"}, {"measurement": "Total HSV-1 [copy/g tumor] mean", "setting": "HSV-1 [1]; Group 7: HSV-1 1 × 10^8 pfu + 10 mg/kg 72 hpi", "value": 74312, "unit": "copy/g tumor"}, {"measurement": "Total HSV-1 [copy/g tumor] mean", "setting": "HSV-1 [1]; Group 8: HSV 5 × 10^6 pfu + 10 mg/kg 2 h pi", "value": 10600, "unit": "copy/g tumor"}, {"measurement": "reduction in viral DNA load", "setting": "HSV-1 [1]; treatment 2 hours post infection compared to 72 hours delayed treatment", "value": "highest reduction in viral DNA load"}, {"measurement": "brain exposure", "setting": "[2]", "value": "highest brain exposure reported to date"}, {"measurement": "IC50", "setting": "HSV-1 ACV resistant", "value": "0.01 to 0.05", "unit": "µM"}, {"measurement": "rescue of mice from virus-induced death", "setting": "HSV-1 [3]", "value": "the mice can be rescued"}]}
